From ChEMBL document CHEMBL5444388, “Affinity Phenotypic Cellular Literature for EUbOPEN Chemogenomic Library” (2024) come the findings set out here.

Where a SMILES comes first, the peptide text is derived from it. [ ]: non-standard residue; d: D form. Arg(Me) = CNC(=N)NCCC[C@H](N)C(=O)O; d3Pal = N[C@H](Cc1cccnc1)C(=O)O; azaGly = NNC(=O)O Where only a bound is given, the exact number is not on record here.

What is called EC50 is the concentration that produces a half-maximal response. As a reminder, the IC50 is the concentration at which inhibition is half-maximal. High values mean lower potency, low ones higher potency.

For experiment [1], the target named is T1, Casein kinase I isoform alpha (Homo sapiens, UniProt P48729). Put plainly: Affinity Phenotypic Cellular interaction: (Western Blot assay (inhibition of CSNK1D/E-mediated phosphorylation of DVL3, analyzed by change in phosphorylation-dependent mobility shift)) EUB0001205a CSNK1A1. The experiment is classed as functional. The arrangement: mode of action Inhibitor, recommended concentration 1 uM.
T1 sequence (P48729 whole entry, canonical isoform): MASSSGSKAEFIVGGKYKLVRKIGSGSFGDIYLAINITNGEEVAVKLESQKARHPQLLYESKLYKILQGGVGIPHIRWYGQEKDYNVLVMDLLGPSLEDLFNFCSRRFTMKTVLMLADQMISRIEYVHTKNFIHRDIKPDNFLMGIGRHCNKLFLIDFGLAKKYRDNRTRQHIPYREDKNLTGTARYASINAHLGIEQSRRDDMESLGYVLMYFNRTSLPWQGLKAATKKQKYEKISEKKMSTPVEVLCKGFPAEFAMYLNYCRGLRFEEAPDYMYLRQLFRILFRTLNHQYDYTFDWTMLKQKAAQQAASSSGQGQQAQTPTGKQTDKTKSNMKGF

In experiment [2] the target is T2, Casein kinase I isoform delta (Homo sapiens, UniProt P48730). Kind of experiment: Affinity Phenotypic Cellular interaction: (Western Blot assay (inhibition of CSNK1D/E-mediated phosphorylation of DVL3, analyzed by change in phosphorylation-dependent mobility shift)) EUB0001205a CSNK1D. The format is functional. The arrangement: mode of action Inhibitor, recommended concentration 1 uM. On the technique in general: A western blot detects proteins with antibodies after separation by electrophoresis.
T2 sequence (P48730 whole entry, canonical isoform): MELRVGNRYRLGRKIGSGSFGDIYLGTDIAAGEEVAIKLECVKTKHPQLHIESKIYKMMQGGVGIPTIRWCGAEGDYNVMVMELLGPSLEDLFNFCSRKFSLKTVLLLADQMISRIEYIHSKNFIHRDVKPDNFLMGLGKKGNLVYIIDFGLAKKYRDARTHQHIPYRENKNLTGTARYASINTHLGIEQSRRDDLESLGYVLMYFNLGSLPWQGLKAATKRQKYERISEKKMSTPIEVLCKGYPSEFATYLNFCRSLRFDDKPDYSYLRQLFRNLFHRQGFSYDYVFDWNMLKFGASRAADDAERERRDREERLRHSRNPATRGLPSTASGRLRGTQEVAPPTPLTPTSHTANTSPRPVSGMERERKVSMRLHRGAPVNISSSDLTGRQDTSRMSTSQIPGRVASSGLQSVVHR

Experiment [3] concerns the target T3, Casein kinase I isoform epsilon (Homo sapiens, UniProt P49674). Kind of experiment: Affinity Phenotypic Cellular interaction: (Western Blot assay (inhibition of CSNK1D/E-mediated phosphorylation of DVL3, analyzed by change in phosphorylation-dependent mobility shift)) EUB0001205a CSNK1E. The format is functional. The arrangement: mode of action Inhibitor, recommended concentration 1 uM.

Experiment [4] deals with T1, Casein kinase I isoform alpha. The experiment is classed as functional, cell-based, T-REx-293.
The target is the same in experiment [5]. The format is functional.
The target of experiment [6] is T2, Casein kinase I isoform delta. The experiment is classed as functional.
Experiment [7] deals with T3, Casein kinase I isoform epsilon. The experiment is classed as functional.
Experiment [8] deals with Interleukin-1 receptor-associated kinase 4 (Homo sapiens, UniProt Q9NWZ3). Put plainly: Affinity Phenotypic Cellular interaction: (R848-induced IL-6 production in human whole blood) EUB0001558a IRAK4. The format is functional, tissue-based. On the set-up: mode of action Inhibitor, recommended concentration 1 uM.
Experiment [9] addresses T4, Leucine-rich repeat serine/threonine-protein kinase 2 (Homo sapiens, UniProt Q5S007, G2019S). The experiment is classed as functional, subcellular, Brain, lysate.
Experiment [10] has as its target T4, Leucine-rich repeat serine/threonine-protein kinase 2. The experiment is classed as functional, subcellular, Brain, lysate. The source holds these as a separate data set.
Another experiment addresses KiSS-1 receptor (Homo sapiens, UniProt Q969F8). Kind of experiment: Affinity Phenotypic Cellular interaction: (Agonist activity for hGPR54 (C-terminal ethyl amide)) EUB0001072a KISS1R. The format is functional. The arrangement: mode of action Negative control for KISS1-305, recommended concentration 1 uM.
The target of experiment [11] is Cyclin-dependent kinase 13 (Homo sapiens, UniProt Q14004). Put plainly: Affinity Phenotypic Cellular interaction: (In-Cell western blot (using MDA-MB-231 cells)) EUB0001632a CDK13. The experiment is classed as functional, cell-based. The arrangement: mode of action Inhibitor, recommended concentration 1 uM.
The target of experiment [12] is Mitotic checkpoint serine/threonine-protein kinase BUB1 (Homo sapiens, UniProt O43683). The format is functional, cell-based, HeLa.
Experiment [13] deals with T5, RAF proto-oncogene serine/threonine-protein kinase (Homo sapiens, UniProt P04049). Put plainly: Affinity Phenotypic Cellular interaction: (Western blot assay (phosphorylation of ERK in HFF cells expressing BRAF/RAS wt)) EUB0000655a RAF1. The format is functional, cell-based. On the set-up: mode of action Inhibitor, recommended concentration 1 uM.
T5 sequence (P04049 whole entry): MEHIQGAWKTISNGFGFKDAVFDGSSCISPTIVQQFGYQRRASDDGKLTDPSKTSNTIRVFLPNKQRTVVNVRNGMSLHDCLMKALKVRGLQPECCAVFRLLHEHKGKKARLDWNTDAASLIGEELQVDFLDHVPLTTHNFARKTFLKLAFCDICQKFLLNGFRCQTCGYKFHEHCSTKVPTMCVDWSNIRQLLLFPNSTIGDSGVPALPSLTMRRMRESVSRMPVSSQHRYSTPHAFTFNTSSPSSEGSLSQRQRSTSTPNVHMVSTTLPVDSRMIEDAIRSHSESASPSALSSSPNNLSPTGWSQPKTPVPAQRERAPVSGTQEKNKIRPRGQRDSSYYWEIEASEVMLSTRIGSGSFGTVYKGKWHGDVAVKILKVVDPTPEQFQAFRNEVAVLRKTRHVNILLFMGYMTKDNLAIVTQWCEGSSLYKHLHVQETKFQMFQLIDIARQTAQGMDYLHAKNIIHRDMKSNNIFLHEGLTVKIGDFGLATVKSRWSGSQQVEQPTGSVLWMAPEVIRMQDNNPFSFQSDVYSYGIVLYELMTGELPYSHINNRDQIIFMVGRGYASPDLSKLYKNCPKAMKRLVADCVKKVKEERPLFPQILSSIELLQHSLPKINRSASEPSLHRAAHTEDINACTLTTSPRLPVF
In experiment [14] the target is T5, RAF proto-oncogene serine/threonine-protein kinase. Put plainly: Affinity Phenotypic Cellular interaction: (Western blot assay (phosphorylation of ERK in HMEC cells expressing BRAF/RAS wt)) EUB0000655a RAF1. The experiment is classed as functional, cell-based. On the set-up: mode of action Inhibitor, recommended concentration 1 uM.
Experiment [15] has the same target. Kind of experiment: Affinity Phenotypic Cellular interaction: (Western blot assay (phosphorylation of ERK in PREC cells expressing BRAF/RAS wt)) EUB0000655a RAF1. On the set-up: mode of action Inhibitor, recommended concentration 1 uM. The format is functional, cell-based.
For experiment [16] the target is unchanged. Kind of experiment: Affinity Phenotypic Cellular interaction: (Western blot assay (phosphorylation of ERK in HCT-116 cells expressing BRAF wt/K-Ras2(G13D))) EUB0000655a RAF1. The experiment is classed as functional, cell-based. On the set-up: mode of action Inhibitor, recommended concentration 1 uM.
For experiment [17] the target is unchanged. Kind of experiment: Affinity Phenotypic Cellular interaction: (Western blot assay (phosphorylation of ERK in HT-1080 cells expressing BRAF wt/N-Ras2(Q61K))) EUB0000655a RAF1. On the set-up: mode of action Inhibitor, recommended concentration 1 uM. The experiment is classed as functional, cell-based.
Experiment [18] shares this target. Put plainly: Affinity Phenotypic Cellular interaction: (Western blot assay (phosphorylation of ERK in SKMEL2 cells expressing BRAF wt/N-Ras2(Q61R))) EUB0000655a RAF1. The experiment is classed as functional, cell-based, SK-MEL-2. The arrangement: mode of action Inhibitor, recommended concentration 1 uM.
Experiment [19] shares this target. Kind of experiment: Affinity Phenotypic Cellular interaction: (Western blot assay (phosphorylation of ERK in A375P cells expressing BRAF V600E/RAS wt)) EUB0000655a RAF1. The format is functional, cell-based. On the set-up: mode of action Inhibitor, recommended concentration 1 uM.
Experiment [20] shares this target. Kind of experiment: Affinity Phenotypic Cellular interaction: (Western blot assay (phosphorylation of ERK in […] cells expressing BRAF V600E/RAS wt)) EUB0000655a RAF1. The format is functional, cell-based, COLO 205. On the set-up: mode of action Inhibitor, recommended concentration 1 uM.
The target is the same in experiment [21]. Kind of experiment: Affinity Phenotypic Cellular interaction: (Western blot assay (phosphorylation of ERK in HT-29 cells expressing BRAF V600E/RAS wt)) EUB0000655a RAF1. The format is functional, cell-based. The arrangement: mode of action Inhibitor, recommended concentration 1 uM.
Experiment [22] shares this target. Put plainly: Affinity Phenotypic Cellular interaction: (Western blot assay (phosphorylation of ERK in MALME-3M cells expressing BRAF V600E/RAS wt)) EUB0000655a RAF1. On the set-up: mode of action Inhibitor, recommended concentration 1 uM. The experiment is classed as functional, cell-based.
Experiment [23] deals with T6, Cyclin-dependent kinase 8 (Homo sapiens, UniProt P49336). Kind of experiment: Affinity Phenotypic Cellular interaction: (Reporter-based luciferase assay (in LS174T cell line (xcexb2-catenin mutant) bearing activating WNT-pathway mutations)) EUB0001623a CDK8. The format is functional. The arrangement: mode of action Inhibitor, recommended concentration 100 nM.
T6 sequence (P49336 whole entry, looked up, change not shown): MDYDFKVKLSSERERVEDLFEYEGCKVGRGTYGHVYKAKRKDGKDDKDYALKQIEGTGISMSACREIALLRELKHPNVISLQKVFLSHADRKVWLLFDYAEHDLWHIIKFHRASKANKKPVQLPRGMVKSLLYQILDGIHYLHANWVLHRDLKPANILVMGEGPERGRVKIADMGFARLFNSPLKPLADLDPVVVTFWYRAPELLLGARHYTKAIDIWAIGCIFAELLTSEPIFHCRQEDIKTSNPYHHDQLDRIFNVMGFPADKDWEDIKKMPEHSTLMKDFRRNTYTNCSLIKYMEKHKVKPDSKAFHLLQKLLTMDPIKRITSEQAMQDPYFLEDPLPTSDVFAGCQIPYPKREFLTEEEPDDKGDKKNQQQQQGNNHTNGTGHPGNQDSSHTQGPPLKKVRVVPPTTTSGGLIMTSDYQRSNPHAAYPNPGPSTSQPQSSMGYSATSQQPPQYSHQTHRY
The target of experiment [24] is T6, Cyclin-dependent kinase 8. Kind of experiment: Affinity Phenotypic Cellular interaction: (Reporter-based luciferase assay (in COLO205 (APC mutant) bearing activating WNT-pathway mutations)) EUB0001623a CDK8. The experiment is classed as functional, cell-based. The arrangement: mode of action Inhibitor, recommended concentration 100 nM. The following applies: colo 205.

For experiment [25], the target named is T6, Cyclin-dependent kinase 8. Kind of experiment: Affinity Phenotypic Cellular interaction: (Reporter-based luciferase assay (in PA-1 cell line bearing activating WNT-pathway mutations)) EUB0001623a CDK8. The format is functional. On the set-up: mode of action Inhibitor, recommended concentration 100 nM.
Experiment [26] has as its target Inhibitor of nuclear factor kappa-B kinase subunit beta (Homo sapiens, UniProt O14920). Put plainly: Affinity Phenotypic Cellular interaction: (Inhibition of expression of ICAM-1 in HeLa cells) EUB0001492b IKBKB. The experiment is classed as functional, cell-based. On the set-up: mode of action Inhibitor, recommended concentration 1 uM.
A further experiment addresses Activin receptor type-1 (Homo sapiens, UniProt Q04771). Put plainly: Affinity Phenotypic Cellular interaction: (Western Blot (inhibition of ALK2 catalysed phosphorylation of SMAD1/5/8, BMP branch signalling)) EUB0001184b ACVRL1. The format is functional. The arrangement: mode of action Inhibitor, recommended concentration 1 uM.

T3 sequence (P49674 whole entry, canonical isoform): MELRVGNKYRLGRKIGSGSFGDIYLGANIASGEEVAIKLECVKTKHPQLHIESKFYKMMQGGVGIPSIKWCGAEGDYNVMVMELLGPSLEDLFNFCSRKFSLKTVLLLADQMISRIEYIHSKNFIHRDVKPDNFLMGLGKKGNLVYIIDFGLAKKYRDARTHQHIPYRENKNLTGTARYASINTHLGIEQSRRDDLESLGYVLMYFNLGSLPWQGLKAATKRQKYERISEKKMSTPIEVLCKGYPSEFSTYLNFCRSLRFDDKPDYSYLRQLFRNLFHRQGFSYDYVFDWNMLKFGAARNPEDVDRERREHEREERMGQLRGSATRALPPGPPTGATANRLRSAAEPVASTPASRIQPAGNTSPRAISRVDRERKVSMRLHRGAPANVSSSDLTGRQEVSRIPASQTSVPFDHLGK
T4 sequence (Q5S007 whole entry G2019S): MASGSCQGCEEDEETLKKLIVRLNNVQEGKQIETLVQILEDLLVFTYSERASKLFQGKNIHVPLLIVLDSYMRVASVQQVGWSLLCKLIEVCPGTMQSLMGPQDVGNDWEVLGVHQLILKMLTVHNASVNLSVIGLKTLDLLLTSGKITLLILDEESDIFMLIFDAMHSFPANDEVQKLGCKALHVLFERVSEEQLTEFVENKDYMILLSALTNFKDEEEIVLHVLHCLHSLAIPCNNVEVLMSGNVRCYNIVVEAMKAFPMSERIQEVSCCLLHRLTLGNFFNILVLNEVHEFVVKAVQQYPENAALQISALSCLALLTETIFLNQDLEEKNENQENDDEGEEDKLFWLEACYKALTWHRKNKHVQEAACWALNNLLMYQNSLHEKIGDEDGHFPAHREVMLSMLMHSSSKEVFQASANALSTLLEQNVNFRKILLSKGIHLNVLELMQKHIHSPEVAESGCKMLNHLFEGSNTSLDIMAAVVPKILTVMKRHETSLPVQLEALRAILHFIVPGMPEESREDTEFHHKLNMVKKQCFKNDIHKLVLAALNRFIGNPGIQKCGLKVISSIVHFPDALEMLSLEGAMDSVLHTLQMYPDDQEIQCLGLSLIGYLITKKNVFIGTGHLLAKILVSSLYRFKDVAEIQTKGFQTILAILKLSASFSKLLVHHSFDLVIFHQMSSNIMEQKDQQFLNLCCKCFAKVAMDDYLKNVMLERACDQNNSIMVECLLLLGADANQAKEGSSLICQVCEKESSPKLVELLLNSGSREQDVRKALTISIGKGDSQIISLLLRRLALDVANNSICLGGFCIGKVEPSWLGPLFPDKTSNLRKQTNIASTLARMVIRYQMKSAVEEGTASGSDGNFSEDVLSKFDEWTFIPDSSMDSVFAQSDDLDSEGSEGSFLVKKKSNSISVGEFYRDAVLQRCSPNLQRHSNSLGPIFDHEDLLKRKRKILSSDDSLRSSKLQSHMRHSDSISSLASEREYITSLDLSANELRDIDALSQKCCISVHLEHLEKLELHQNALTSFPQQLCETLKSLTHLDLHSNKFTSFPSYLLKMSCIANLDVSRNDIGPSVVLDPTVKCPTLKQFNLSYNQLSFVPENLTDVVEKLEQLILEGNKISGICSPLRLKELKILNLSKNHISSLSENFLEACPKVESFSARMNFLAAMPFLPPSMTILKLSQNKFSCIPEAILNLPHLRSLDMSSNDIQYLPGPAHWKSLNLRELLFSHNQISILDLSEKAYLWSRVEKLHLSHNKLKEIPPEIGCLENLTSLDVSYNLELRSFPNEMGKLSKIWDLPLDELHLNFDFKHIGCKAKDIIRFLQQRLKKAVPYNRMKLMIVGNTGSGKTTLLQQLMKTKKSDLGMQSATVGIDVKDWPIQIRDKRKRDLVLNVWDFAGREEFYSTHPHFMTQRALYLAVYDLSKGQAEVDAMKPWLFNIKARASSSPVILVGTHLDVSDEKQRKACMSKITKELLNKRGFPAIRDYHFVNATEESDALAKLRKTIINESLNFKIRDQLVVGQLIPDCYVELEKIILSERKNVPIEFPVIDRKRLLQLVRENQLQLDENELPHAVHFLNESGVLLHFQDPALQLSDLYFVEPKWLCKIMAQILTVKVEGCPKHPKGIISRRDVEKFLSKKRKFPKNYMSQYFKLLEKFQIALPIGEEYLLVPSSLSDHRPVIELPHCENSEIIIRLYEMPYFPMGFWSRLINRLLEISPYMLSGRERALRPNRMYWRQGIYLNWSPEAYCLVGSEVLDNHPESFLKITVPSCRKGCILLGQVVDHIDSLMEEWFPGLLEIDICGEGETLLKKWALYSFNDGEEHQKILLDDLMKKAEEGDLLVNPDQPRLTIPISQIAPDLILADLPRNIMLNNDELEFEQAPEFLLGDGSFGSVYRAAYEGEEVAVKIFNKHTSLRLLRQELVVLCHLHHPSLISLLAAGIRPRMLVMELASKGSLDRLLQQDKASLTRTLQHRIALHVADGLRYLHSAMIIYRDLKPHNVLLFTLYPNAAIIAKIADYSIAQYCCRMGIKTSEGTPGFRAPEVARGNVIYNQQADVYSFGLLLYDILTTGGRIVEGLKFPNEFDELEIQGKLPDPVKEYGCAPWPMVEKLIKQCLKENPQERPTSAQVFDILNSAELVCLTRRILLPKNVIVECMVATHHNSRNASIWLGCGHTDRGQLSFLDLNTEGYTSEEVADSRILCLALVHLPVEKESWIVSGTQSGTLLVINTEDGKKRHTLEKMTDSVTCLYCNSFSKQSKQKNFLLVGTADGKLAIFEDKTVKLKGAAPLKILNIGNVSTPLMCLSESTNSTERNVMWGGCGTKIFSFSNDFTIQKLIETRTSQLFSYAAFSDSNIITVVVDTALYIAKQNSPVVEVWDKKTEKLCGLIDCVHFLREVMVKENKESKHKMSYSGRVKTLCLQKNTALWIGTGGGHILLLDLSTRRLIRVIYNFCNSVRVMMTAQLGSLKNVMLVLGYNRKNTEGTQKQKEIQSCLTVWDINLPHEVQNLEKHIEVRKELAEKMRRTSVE

`CN1CCC(F)(Cn2cnc(-c3ccc(F)cn3)c2-c2ccnc3[nH]ccc23)CC1`: the EC50 in experiment [1], in experiment [2] and in experiment [3] was 200 nM each time. The IC50 in [4] was 10500 nM; in experiment [5], 1600 nM; in [6], 1600 nM; in [7], 1600 nM.

For `CC(C)(O)[C@H](F)CN1Cc2cc(NC(=O)c3cnn4cccnc34)c(N3CCOCC3)cc2C1=O`, the IC50 in experiment [8] turned out to be 190 nM. This counts as sub-micromolar.

In the case of `N#Cc1cccc(-c2c[nH]c3ncnc(N4CCOCC4)c23)c1`, the IC50 was determined as 21 nM in [9] and 103 nM in [10].

On KiSS-1 receptor, `CNC(=N)NCCC[C@H](NC(=O)[C@H](CC(C)C)NC(=O)NNC(=O)[C@H](Cc1ccccc1)NC(=O)[C@H](CO)NC(=O)[C@H](CC(N)=O)NC(=O)[C@@H](Cc1cccnc1)NC(=O)[C@H](N)Cc1ccc(O)cc1)C(=O)NCC(N)=O` [KISS1-543] (H-[dY][d3Pal]NSF[azaGly]L[Arg(Me)]G-NH2) yielded an EC50 of over 10000 nM.

`Cn1cc(-n2cnc3c(NCc4nc5cc(Cl)c(Cl)cc5[nH]4)nc(N4CCOCC4)nc32)cn1` yielded an EC50 in experiment [11] of 105 nM.

For the molecule `COc1cnccc1Nc1nc(-c2nn(Cc3c(F)cc(OCCO)cc3F)c3ccccc23)ncc1OC`, the IC50 in experiment [12] was over 10 nM.

Take `CN(C)CCOc1ccc(-c2nc(-c3ccncc3)c(-c3ccc4c(c3)CC/C4=N\O)[nH]2)cc1` [SB590885]: the IC50 in experiment [13] is 11000 nM; in experiment [14] it was 5100 nM; in experiment [15] it was 6100 nM; in experiment [16], 1100 nM; in experiment [17] it was over 13000 nM; in [18] it was 1500 nM. Besides, the IC50 in [19] worked out at 290 nM; in [20], 28 nM; in experiment [21] it was 58 nM; in [22], 190 nM.

Take `Cc1n[nH]c2ncc(C(=O)N3CCC[C@H]3c3ccc(Cl)cc3)cc12`: the IC50 in [23] was 32000 nM; in experiment [24], 9 nM; in [25], 52 nM.

Regarding `CCC(F)(F)c1cc(N2CCC(S(C)(=O)=O)CC2)nc2sc(C(N)=O)c(N)c12` [BI-605906], in experiment [26], the EC50 is 700 nM.

With `COc1cc(-c2cncc(-c3ccc(N4CCN(C(C)C)CC4)cc3)c2C)cc(F)c1C(N)=O`, at Activin receptor type-1, the EC50 was under 100 nM.
